In brackets after ≈: the same amount, converted by molar mass.
What was measured:
[1] = tested on: VZV strain Ellen; experiment: VZV Antiviral (ELISA) assay; format: cell-based; conditions: VZV strain Ellen in HFF cells; for % inhibition 10 ug/ml VZV: at 10 ug/ml
Summary of the method: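 Low-MOI (<0.1) Ellen infection of HFF overnight; cell mix plated 3.5×10^4/well with compound, DMEM + 2% FBS, 3 d, 37° C, 5% CO2. Fix, anti-gpII mAb ELISA, MUG substrate, fluorescence. IC50 vs compound-free signal.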

[2] = tested on: HSV-1; experiment: HSV Antiviral (ELISA) assay; format: cell-based; conditions: HSV-1 in Vero cells
Summary of the method: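 Vero cells in DMEM/2% FBS pretreated with compound 30 min before HSV-1 infection (MOI 0.006), then ~24 h at 37 °C. Viral gD detected by ELISA with β-galactosidase secondary and 4-methylumbelliferyl-galactoside (ex 365/em 450 nm); IC50 from fluorescence versus untreated infected cells.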

[3] = tested on: HCMV recombinant mutant virus (RV145); experiment: HCMV microtiter plate assay (beta-glucuronidase reporter); format: cell-based, Human Cytomegalovirus; conditions: HCMV in human foreskin fibroblasts
Summary of the method: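 Human foreskin fibroblasts were infected with RV145 in the presence of inhibitor. β-glucuronidase under a viral promoter served as the replication marker. At 96 h post-infection, lysates in pH 7.0 phosphate with Triton X-100/sarkosyl were assayed colorimetrically or fluorometrically, and IC50 was estimated from varying inhibitor amounts.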

Structure (SMILES): O=C(Nc1ccc(NC(=S)Nc2ccc(Cl)nc2)cc1)c1ccco1 [Example 445]
- IC50 (ug/ml) VZV [1]: >10 µg/mL
- IC50 (ug/ml) HSV [2]: 10 µg/mL (≈ 26.8 µM)
- IC50 (ug/ml) HCMV [3]: 0.15 µg/mL (≈ 0.402 µM)

Structure (SMILES): Nc1c(Cl)cccc1NC(=S)Nc1ccc(NC(=O)c2ccco2)cc1 [Example 446]
- IC50 (ug/ml) VZV [1]: >10 µg/mL
- IC50 (ug/ml) HSV [2]: 10 µg/mL (≈ 25.8 µM)
- IC50 (ug/ml) HCMV [3]: 0.7 µg/mL (≈ 1.81 µM)

Structure (SMILES): NNC(=O)c1cccc(NC(=S)Nc2ccc(NC(=O)c3ccco3)cc2)c1 [Example 447]
- IC50 (ug/ml) VZV [1]: >10 µg/mL
- IC50 (ug/ml) HSV [2]: >10 µg/mL
- IC50 (ug/ml) HCMV [3]: >10 µg/mL

Structure (SMILES): NNC(=O)c1cccc(NC(=S)Nc2ccc(NC(=O)c3csnn3)cc2)c1 [Example 449]
- IC50 (ug/ml) VZV [1]: >10 µg/mL
- IC50 (ug/ml) HSV [2]: >10 µg/mL
- IC50 (ug/ml) HCMV [3]: 1.6 µg/mL (≈ 3.87 µM)

Structure (SMILES): CC(C)c1cccc(NC(=S)Nc2ccc(NC(=O)c3csnn3)cc2)c1 [Example 450]
- IC50 (ug/ml) VZV [1]: >10 µg/mL
- IC50 (ug/ml) HSV [2]: >10 µg/mL
- IC50 (ug/ml) HCMV [3]: 0.05 µg/mL (≈ 0.126 µM)

Structure (SMILES): CC(C)c1cccc(NC(=S)Nc2ccc(NC(=O)c3ccco3)cc2)c1 [Example 451]
- IC50 (ug/ml) VZV [1]: >10 µg/mL
- IC50 (ug/ml) HSV [2]: 8 µg/mL (≈ 21.1 µM)
- IC50 (ug/ml) HCMV [3]: 0.15 µg/mL (≈ 0.395 µM)

Structure (SMILES): N#Cc1cccc(NC(=S)Nc2ccc(NC(=O)c3csnn3)cc2)c1 [Example 453]
- IC50 (ug/ml) VZV [1]: 3 µg/mL (≈ 7.89 µM)
- IC50 (ug/ml) HSV [2]: >10 µg/mL
- IC50 (ug/ml) HCMV [3]: 0.07 µg/mL (≈ 0.184 µM)

Structure (SMILES): CN(C)c1cccc(NC(=S)Nc2ccc(NC(=O)c3ccco3)cc2)c1 [Example 455]
- IC50 (ug/ml) VZV [1]: >10 µg/mL
- % inhibition 10 ug/ml VZV [1]: 30%
- IC50 (ug/ml) HSV [2]: >10 µg/mL
- IC50 (ug/ml) HCMV [3]: 0.3 µg/mL (≈ 0.788 µM)

Structure (SMILES): Cc1cccc(NC(=S)Nc2ccc(NC(=O)c3csnn3)cc2)c1 [Example 456]
- IC50 (ug/ml) VZV [1]: >10 µg/mL
- % inhibition 10 ug/ml VZV [1]: 12%
- IC50 (ug/ml) HSV [2]: >10 µg/mL
- IC50 (ug/ml) HCMV [3]: 0.07 µg/mL (≈ 0.189 µM)

Structure (SMILES): O=C(Nc1ccc(NC(=S)Nc2cccc(C(F)(F)F)c2)cc1)c1csnn1 [Example 457]
- IC50 (ug/ml) VZV [1]: >10 µg/mL
- % inhibition 10 ug/ml VZV [1]: 26%
- IC50 (ug/ml) HSV [2]: >10 µg/mL
- IC50 (ug/ml) HCMV [3]: 0.019 µg/mL (≈ 0.0449 µM)

Structure (SMILES): CC(=O)Nc1cccc(NC(=S)Nc2ccc(NC(=O)c3ccco3)cc2)c1 [Example 462]
- IC50 (ug/ml) VZV [1]: >10 µg/mL
- % inhibition 10 ug/ml VZV [1]: 6%
- IC50 (ug/ml) HSV [2]: >10 µg/mL
- IC50 (ug/ml) HCMV [3]: 1 µg/mL (≈ 2.54 µM)

Structure (SMILES): CC(O)c1cccc(NC(=S)Nc2ccc(NC(=O)c3csnn3)cc2)c1 (stereo not shown) [Example 464]
- IC50 (ug/ml) VZV [1]: >10 µg/mL
- % inhibition 10 ug/ml VZV [1]: 25%
- IC50 (ug/ml) HSV [2]: >10 µg/mL
- IC50 (ug/ml) HCMV [3]: 0.15 µg/mL (≈ 0.375 µM)

Structure (SMILES): Nc1cc(Cl)cc(NC(=S)Nc2ccc(NC(=O)c3csnn3)cc2)c1 [Example 466]
- IC50 (ug/ml) VZV [1]: >10 µg/mL
- % inhibition 10 ug/ml VZV [1]: 93%
- IC50 (ug/ml) HSV [2]: >10 µg/mL
- IC50 (ug/ml) HCMV [3]: 0.011 µg/mL (≈ 0.0272 µM)

Structure (SMILES): COc1cc(NC(=S)Nc2ccc(NC(=O)c3ccco3)cc2)cc(OC)c1 [Example 467]
- IC50 (ug/ml) VZV [1]: >15 µg/mL
- % inhibition 10 ug/ml VZV [1]: 93%
- IC50 (ug/ml) HSV [2]: >10 µg/mL
- IC50 (ug/ml) HCMV [3]: 0.12 µg/mL (≈ 0.302 µM)

Structure (SMILES): COc1cc(NC(=S)Nc2ccc(NC(=O)c3csnn3)cc2)cc(OC)c1 [Example 468]
- IC50 (ug/ml) VZV [1]: >10 µg/mL
- % inhibition 10 ug/ml VZV [1]: 50%
- IC50 (ug/ml) HSV [2]: >10 µg/mL
- IC50 (ug/ml) HCMV [3]: 0.06 µg/mL (≈ 0.144 µM)

Structure (SMILES): COC(=O)c1cc(NC(=S)Nc2ccc(NC(=O)c3ccco3)cc2)cc(C(=O)OC)c1 [Example 469]
- IC50 (ug/ml) VZV [1]: >10 µg/mL
- % inhibition 10 ug/ml VZV [1]: 54%
- IC50 (ug/ml) HSV [2]: >10 µg/mL
- IC50 (ug/ml) HCMV [3]: 0.1 µg/mL (≈ 0.221 µM)

Structure (SMILES): COc1cc(OC)c(NC(=S)Nc2ccc(NC(=O)c3ccno3)cc2)cc1Cl [Example 470]
- IC50 (ug/ml) VZV [1]: >10 µg/mL
- % inhibition 10 ug/ml VZV [1]: 17%
- IC50 (ug/ml) HSV [2]: 0.6 µg/mL (≈ 1.39 µM)
- IC50 (ug/ml) HCMV [3]: 0.7 µg/mL (≈ 1.62 µM)

Structure (SMILES): CC(O)c1cccc(NC(=S)Nc2ccc(NC(=O)c3ccco3)cc2)c1 (stereo not shown) [Example 472]
- IC50 (ug/ml) VZV [1]: >10 µg/mL
- % inhibition 10 ug/ml VZV [1]: 31%
- IC50 (ug/ml) HSV [2]: >10 µg/mL
- IC50 (ug/ml) HCMV [3]: 0.8 µg/mL (≈ 2.1 µM)

Structure (SMILES): COc1cccc(NC(=S)Nc2ccc(NC(=O)c3ccco3)cc2)c1 [Example 473]
- IC50 (ug/ml) VZV [1]: >10 µg/mL
- % inhibition 10 ug/ml VZV [1]: 40%
- IC50 (ug/ml) HSV [2]: >10 µg/mL
- IC50 (ug/ml) HCMV [3]: 0.3 µg/mL (≈ 0.816 µM)

Structure (SMILES): O=C(Nc1ccc(NC(=S)Nc2cccc(O)c2)cc1)c1ccco1 [Example 474]
- IC50 (ug/ml) VZV [1]: >10 µg/mL
- % inhibition 10 ug/ml VZV [1]: 22%
- IC50 (ug/ml) HSV [2]: >10 µg/mL
- IC50 (ug/ml) HCMV [3]: 1 µg/mL (≈ 2.83 µM)

From US6426355B1, “Heterocyclic carboxamide-containing thiourea inhibitors of herpes viruses containing phenylenediamine group” (American Home Products, priority 1998, dated 2002)
